pEC50: −log10 of the molar value.
Legend:
histamine H3 receptor = conditions: EP-A-0 420 396; cited from earlier work
[1] = test system: histamine synthesis in the brain of rats; assay: inhibition of histamine synthesis in vivo (brain, peripheral organs)
H3 receptor = target: T1, H3 receptor (Rattus norvegicus, UniProt Q9QYN8); assay: inhibition of liberation and synthesis of endogenous histamine from depolarized brain sections (H3 agonism); type: cell-based; conditions: for potency relative to histamine (times more powerful): H3 agonist
T1 construct: liberation and synthesis of endogenous histamine from depolarized brain sections; from tissue; host or cells: brain sections (slices)
T1 sequence (Q9QYN8 whole entry): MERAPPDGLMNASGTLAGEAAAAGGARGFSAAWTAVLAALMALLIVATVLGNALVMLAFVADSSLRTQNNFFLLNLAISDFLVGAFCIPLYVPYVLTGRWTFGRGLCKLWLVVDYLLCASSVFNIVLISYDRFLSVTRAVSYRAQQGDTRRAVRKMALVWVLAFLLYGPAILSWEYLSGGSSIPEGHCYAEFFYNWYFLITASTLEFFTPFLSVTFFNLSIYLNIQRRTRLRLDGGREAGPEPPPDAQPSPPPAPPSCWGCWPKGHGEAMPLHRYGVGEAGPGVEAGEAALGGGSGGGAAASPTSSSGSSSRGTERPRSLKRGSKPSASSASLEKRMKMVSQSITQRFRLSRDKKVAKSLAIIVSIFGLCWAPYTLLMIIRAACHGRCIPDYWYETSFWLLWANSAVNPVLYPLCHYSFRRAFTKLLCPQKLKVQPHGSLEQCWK

histamine H2 receptor = conditions: Sterk et al.; cited from earlier work
[2] = test system: secretion of gastric acid which is stimulated by histamine; conditions: opposes action of histamine; Ganellin; cited from earlier work

pEC50 (H3 receptor; read-out: EC50 as H3 agonist) | SMILES | H3 agonist potency and selectivity in words (histamine H3 receptor) | H3 agonist activity in vivo ([1]; in vivo test not specified) | type of agonism on the H3 receptor (H3 receptor) | potency relative to histamine (times more powerful) (H3 receptor) | crossing of the blood-brain barrier ([1]; inferred from brain effect at oral 3 mg/kg in rats) | inhibition of histamine synthesis in peripheral organs such as the lungs ([1]; peripheral organs, lungs) | inhibition of histamine synthesis in the brain ([1]; rats, oral dose of 3 mg/kg) | concentration stimulating the H2 receptor (histamine H2 receptor) | partial agonist efficacy at histamine H2 receptor (histamine H2 receptor) [%] | 50% inhibiting dose on rat gastric secretion [2] | concentration for H3 relative to that necessary for engagement of the H2 receptor (times lower) (H3 receptor; H3 versus H2) | concentration stimulating the H3 receptor (H3 receptor; depolarized brain sections)
 | N=C(N)CCCc1c[nH]cn1 [Compound III, 4-(4(5)-imidazolyl) butyramidine] | highly potent selective histamine H3 -agonists |  |  |  |  |  |  |  |  |  |  | 
8.00 | CN=C(N)SCCc1c[nH]cn1 [Compound II] |  | active in vivo | full and comparatively powerful | about 6 times |  |  |  |  |  |  |  | 
 | N=C(N)SCCc1cnc[nH]1 [Compound I, S-[2-(4(5)-imidazolyl)-ethyl] isothiourea] | highly potent selective histamine H3 -agonists |  | full histamine agonist | 62 times | adequately crosses the blood-brain barrier | inhibits at a very low dose | maximum inhibition | about 0.1 mM | 50 | about 200 μmoles/kg | about 100,000 times | about 1 nanomolar

Reference: patent US5321039A, “Method of inducing a histamine agonist action on H2 receptors” (Societe Civile Bioprojet, priority 1990, dated 1994)
